Reference: ChEMBL document CHEMBL1201862, “PubChem BioAssay data set” (2004)
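How tested: cells in 96-well plates exposed to compound for 48 hours at five concentrations. Abbreviation: GI50, concentration required for 50% inhibition of growth.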 The source made the active and inactive calls. Rule as the data show it: active = GI50 up to about 1.1 µM and inactive = higher.

Legend:
Experiment in all cases: DTP human tumour cell line panel, 48 h
RXF 393 = system: RXF 393
MDA-MB-435 = system: MDA-MB-435
HL-60 = system: HL-60
SW-620 = system: SW-620
CCRF-CEM = system: CCRF-CEM
SN12C = system: SN12C
SK-MEL-2 = system: SK-MEL-2
OVCAR-8 = system: OVCAR-8
LOX IMVI = system: LOX IMVI
RPMI-8226 = system: RPMI-8226
OVCAR-3 = system: OVCAR-3
COLO 205 = system: COLO 205
NCI-H23 = system: NCI-H23
NCI-H522 = system: NCI-H522
NCI-H226 = system: NCI-H226
UACC-257 = system: UACC-257
SF-539 = system: SF-539
A498 = system: A498
OVCAR-4 = system: OVCAR-4
A549 = system: A549

Row | SMILES | GI50 (RXF 393) | GI50 (MDA-MB-435) | GI50 (HL-60) | GI50 (SW-620) | GI50 (CCRF-CEM) | GI50 (SN12C) | GI50 (SK-MEL-2) | GI50 (OVCAR-8) | GI50 (LOX IMVI) | GI50 (RPMI-8226) | GI50 (OVCAR-3) | GI50 (COLO 205) | GI50 (NCI-H23) | GI50 (NCI-H522) | GI50 (NCI-H226) | GI50 (UACC-257) | GI50 (SF-539) | GI50 (A498) | GI50 (OVCAR-4) | GI50 (A549)
1 | O=C(O)CC1OCC=C2CN3CCC45C6=CC(=O)C(O)=C([N+](=O)[O-])C6=NC4C1C2CC35 (stereo not given) | > 100 µM (inactive) | 17.2 µM (inactive) | 52 µM (inactive) | 47 µM (inactive) | 18.1 µM (inactive) | > 100 µM (inactive) | > 100 µM (inactive) | > 100 µM (inactive) | 40.8 µM (inactive) | 31 µM (inactive) | > 100 µM (inactive) | > 100 µM (inactive) | > 100 µM (inactive) | > 100 µM (inactive) | > 100 µM (inactive) | > 100 µM (inactive) | > 100 µM (inactive) | > 100 µM (inactive) | > 100 µM (inactive) | > 100 µM (inactive)
2 | c1cc2c(cc1[C@@H]1OC[C@@H]3[C@H]1CO[C@H]3c1ccc3c(c1)OCO3)OCO2 | 20.8 µM (inactive) | 54.2 µM (inactive) | 44 µM (inactive) | 58.3 µM (inactive) | 44.8 µM (inactive) | > 100 µM (inactive) | > 100 µM (inactive) | > 100 µM (inactive) | 36.2 µM (inactive) | 46.3 µM (inactive) | 43.5 µM (inactive) | > 100 µM (inactive) | 65.9 µM (inactive) | > 100 µM (inactive) | > 100 µM (inactive) | 13.7 µM (inactive) | > 100 µM (inactive) | > 100 µM (inactive) | > 100 µM (inactive) | 62.2 µM (inactive)
3 | COc1ccc(N/N=C2\C3=C(CCC(C)(C)O3)C(=O)c3ccccc32)cc1 | 12.4 µM (inactive) | 17.1 µM (inactive) | 15.3 µM (inactive) | 34 µM (inactive) | 16 µM (inactive) | 17.9 µM (inactive) | 21.8 µM (inactive) | 26.5 µM (inactive) | 16.2 µM (inactive) | 16.8 µM (inactive) | 14.9 µM (inactive) | 22.9 µM (inactive) | 18 µM (inactive) | 17 µM (inactive) | 52.6 µM (inactive) | 19.7 µM (inactive) | 24.4 µM (inactive) | 15 µM (inactive) | 18.3 µM (inactive) | 16.6 µM (inactive)
4 | CCO/C=N/C1=C(C#N)SC2=N/C(=C\c3ccccc3)C(=O)N21 | > 100 µM (inactive) | > 100 µM (inactive) | 23.9 µM (inactive) | > 100 µM (inactive) | 60.5 µM (inactive) | > 100 µM (inactive) | > 100 µM (inactive) | > 100 µM (inactive) | > 100 µM (inactive) | > 58.1 µM (inactive) | > 100 µM (inactive) | > 100 µM (inactive) | > 100 µM (inactive) | > 100 µM (inactive) | 97.3 µM (inactive) | > 100 µM (inactive) | > 100 µM (inactive) | > 85.1 µM (inactive) | 57.9 µM (inactive) | > 100 µM (inactive)
5 | Cc1ccnc2nc(-c3cccc4ccccc34)cc(O)c12 | 0.0879 µM (active) | 0.0001 µM (active) | 0.000487 µM (active) | 0.00379 µM (active) | 0.00527 µM (active) | 0.127 µM (active) | 0.000458 µM (active) | 0.0203 µM (active) | 0.00713 µM (active) | 0.00682 µM (active) | 0.00258 µM (active) | 0.0177 µM (active) | 0.0783 µM (active) | 0.00106 µM (active) | 0.0336 µM (active) | 23.1 µM (inactive) | 0.0112 µM (active) | 0.00167 µM (active) | 0.115 µM (active) | 0.019 µM (active)
6 | CC1(C)O[C@@H]2C[C@H]3[C@@H]4C[C@H](F)C5=CC(=O)C=C[C@]5(C)[C@@]4(F)[C@@H](O)C[C@]3(C)[C@]2(C(=O)CO)O1 [FLUOCINOLONE ACETONIDE] | > 100 µM (inactive) | > 100 µM (inactive) | > 100 µM (inactive) | > 100 µM (inactive) | < 0.01 µM (active) | 12 µM (inactive) | > 100 µM (inactive) | > 100 µM (inactive) | > 100 µM (inactive) | < 0.01 µM (active) | > 100 µM (inactive) | > 100 µM (inactive) | > 100 µM (inactive) | > 100 µM (inactive) | > 85.1 µM (inactive) | > 89.3 µM (inactive) | > 100 µM (inactive) | > 100 µM (inactive) | > 89.1 µM (inactive) | > 100 µM (inactive)
